Test results published in US20260297042A1, “BIARYLAMIDE DERIVATIVES AND THEIR USE AS PKMYT1 INHIBITORS” (CANCER RESEARCH TECHNOLOGY LIMITED, priority 2023, published 2026).

Experiments:
WEE1 = target: T1, WEE1 (Homo sapiens, UniProt P30291); test: Selectivity versus WEE1 assay (ADP-Glo enzymatic assay); format: biochemical; conditions: for IC50: ADP-Glo; for PKMYT1 vs. WEE1 selectivity: fold difference in selectivity for PKMYT1 over WEE1
T1 construct: purchased Thermo Fisher PR7373A
Outline: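 Compounds were pre-dispensed, enzyme (15 nM final) was added in pH 7.5 HEPES buffer, and ATP ([…]) then started a 60 min incubation at 26° C. Afterwards ADP-Glo reagents were added in turn and luminescence was measured to derive IC50 values.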

Human PKMYT1 = target: T2, Human PKMYT1 (Homo sapiens, UniProt Q99640); test: PKMYT1 biochemical ADP-Glo enzymatic assay; conditions: ADP-Glo
T2 construct: Human PKMYT1 75-362 was cloned as a TEV cleavable 6xHis fusion; 6xHis (TEV cleavable) (cleaved yes); made in house; host or cells: bacterial cells
T2 sequence (Q99640 75-362): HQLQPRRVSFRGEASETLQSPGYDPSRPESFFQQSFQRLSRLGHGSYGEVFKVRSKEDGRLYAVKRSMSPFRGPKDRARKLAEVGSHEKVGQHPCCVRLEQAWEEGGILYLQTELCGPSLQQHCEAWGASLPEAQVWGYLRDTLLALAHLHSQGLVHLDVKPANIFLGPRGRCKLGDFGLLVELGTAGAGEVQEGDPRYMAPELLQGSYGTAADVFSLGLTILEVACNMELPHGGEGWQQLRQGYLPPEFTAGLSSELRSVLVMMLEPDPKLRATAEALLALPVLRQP
Outline: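 Compounds were titrated over 10 points (3-fold steps), then 15 nM purified PKMYT1 kinase domain (aa 75-362) and 500 µM ATP were added in pH 7.5 HEPES buffer. After 60 min at 26 °C, remaining ATP was depleted and ADP converted to luminescence for IC50 fitting.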

[1] = PKMYT1 kinase domain 15 nM, banded values
[2] = 15 nM WEE1, 60 minutes at 26° C., banded
[3] = banded, ">N" = at least in this band but could be higher
[4] = 15 nM PKMYT1 kinase domain, 500 µM ATP, 60 minutes at 26° C., banded

T1 sequence (P30291 whole entry): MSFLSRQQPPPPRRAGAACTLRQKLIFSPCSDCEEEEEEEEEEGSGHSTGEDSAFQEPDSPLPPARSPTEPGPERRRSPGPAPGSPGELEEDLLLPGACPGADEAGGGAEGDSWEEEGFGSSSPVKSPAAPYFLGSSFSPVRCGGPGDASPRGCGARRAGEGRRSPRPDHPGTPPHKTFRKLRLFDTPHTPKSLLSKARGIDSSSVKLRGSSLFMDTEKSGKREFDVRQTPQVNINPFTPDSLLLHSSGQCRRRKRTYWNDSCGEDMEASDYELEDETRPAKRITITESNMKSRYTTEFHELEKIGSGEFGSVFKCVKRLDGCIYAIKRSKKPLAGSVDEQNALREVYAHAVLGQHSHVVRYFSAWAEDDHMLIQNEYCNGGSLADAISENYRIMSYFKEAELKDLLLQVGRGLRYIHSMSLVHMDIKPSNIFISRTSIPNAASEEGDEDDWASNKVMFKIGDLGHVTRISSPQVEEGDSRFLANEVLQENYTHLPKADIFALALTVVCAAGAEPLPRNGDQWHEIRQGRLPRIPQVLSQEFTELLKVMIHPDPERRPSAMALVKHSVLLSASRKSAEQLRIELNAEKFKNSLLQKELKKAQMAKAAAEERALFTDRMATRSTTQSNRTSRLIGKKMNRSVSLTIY

Structure (SMILES) | IC50 (WEE1; WEE1 15 nM, banded values) [µM] | PKMYT1 vs. WEE1 selectivity (WEE1; banded) | IC50 (Human PKMYT1; [1]) [µM] | IC50 (WEE1; [2]) [µM] | PKMYT1 vs. WEE1 selectivity (WEE1; [3]) | IC50 (Human PKMYT1; [4]) [µM]
Cc1ccc(O)c(C)c1NC(=O)c1cnc(Nc2cc(C#N)n(C)n2)s1 [BAA-505, 2-((5-cyano-1-methyl-1H-pyrazol-3-yl)amino)-N-(3-hydroxy-2,6-dimethylphenyl)thiazole-5-carboxamide] | 1 to 11 | W (10-<100 fold) | 0.05 to 1 | – | – | –
Cc1ccc(O)c(C)c1NC(=O)c1cnc(Nc2ccn(C3COC3)n2)s1 [BAA-007, N-(3-hydroxy-2,6-dimethyl-phenyl)-2-[[1-(oxetan-3-yl)pyrazol-3-yl]amino]thiazole-5-carboxamide] | – | – | – | 0.05 to 1 | W (10-<100 fold) | < 0.05
COC1CCN(C(=O)Cn2cc(C)c(Nc3ncc(C(=O)Nc4c(C)ccc(O)c4C)s3)n2)C1 (stereo not drawn) [BAA-538, N-(3-hydroxy-2,6-dimethylphenyl)-2-((1-(2-(3-methoxypyrrolidin-1-yl)-2-oxoethyl)-4-methyl-1H-pyrazol-3-yl)amino)thiazole-5-carboxamide] | 1 to 11 | X (100-<1000 fold) | < 0.05 | – | – | –
CCN(C(=O)C(C)(C)C)c1ccc(C)c(Nc2ncc(C(=O)Nc3c(C)ccc(O)c3C)s2)n1 [BAA-234, 2-((6-(N-ethylpivalamido)-3-methylpyridin-2-yl)amino)-N-(3-hydroxy-2,6-dimethylphenyl) thiazole-5-carboxamide] | – | – | – | 1 to 11 | X (100-<1000 fold) | < 0.05
Cc1ccc(O)c(C)c1NC(=O)c1cnc(Nc2ccn(C3CCCOC3)n2)s1 (stereo not drawn) [BAA-036, N-(3-hydroxy-2,6-dimethyl-phenyl)-2-[(1-tetrahydropyran-3-ylpyrazol-3-yl)amino]thiazole-5-carboxamide] | – | – | – | > 11 | Z (>5000 fold) | < 0.05
COc1c(Cl)ncnc1Nc1ncc(C(=O)Nc2c(C)ccc(O)c2C)s1 [BAA-562, 2-((6-chloro-5-methoxypyrimidin-4-yl)amino)-N-(3-hydroxy-2,6-dimethylphenyl)thiazole-5-carboxamide] | > 11 | Y (1000-5000 fold) | < 0.05 | – | – | –
C#Cc1cccc(Nc2ncc(C(=O)Nc3c(C)ccc(O)c3C)s2)n1 [BAA-431, 2-((6-ethynylpyridin-2-yl)amino)-N-(3-hydroxy-2,6-dimethylphenyl)thiazole-5-carboxamide] | > 11 | X (100-<1000 fold) | 0.05 to 1 | – | – | –
Cc1ccc(O)c(C)c1NC(=O)c1cnc(Nc2ccn(CC(=O)N3CCN(C(=O)N(C)C)CC3)n2)s1 [BAA-154] | – | – | – | > 11 | Y (1000-5000 fold) | < 0.05
Cc1ccc(O)c(C)c1NC(=O)c1cnc(Nc2ccn([C@H]3CCN(C(=O)OC(C)(C)C)C3)n2)s1 [BAA-042] | – | – | – | > 11 | >X (100-<1000 fold) | 0.05 to 1
Cc1ccc(O)c(C)c1NC(=O)c1cnc(Nc2cc(C(=O)N3CCOCC3)n(C)n2)s1 [BAA-537, N-(3-hydroxy-2,6-dimethylphenyl)-2-((1-methyl-5-(morpholine-4-carbonyl)-1H-pyrazol-3-yl)amino)thiazole-5-carboxamide] | 1 to 11 | W (10-<100 fold) | 0.05 to 1 | – | – | –
Cc1ccc(O)c(C)c1NC(=O)c1cnc(Nc2ccn(CC(=O)N3C[C@@H]4C[C@H]3CN4C)n2)s1 [BAA-172] | – | – | – | > 11 | X (100-<1000 fold) | < 0.05
Cc1ccc(O)c(C)c1NC(=O)c1cnc(Nc2ccn([C@@H]3CCN(C(=O)Cc4ccccc4F)C3)n2)s1 [BAA-095] | – | – | – | > 11 | >Y (1000-5000 fold) | 0.05 to 1
Cc1cccc(CNc2ncc(C(=O)Nc3c(C)ccc(O)c3C)s2)c1O [BAA-363, N-(3-hydroxy-2,6-dimethylphenyl)-2-((2-hydroxy-3-methylbenzyl)amino)thiazole-5-carboxamide] | – | – | – | > 11 | X (100-<1000 fold) | 0.05 to 1
Cc1ccc(O)c(C)c1NC(=O)c1cnc(Nc2ccn(CCN)n2)s1 [BAA-053, 2-[[1-(2-Aminoethyl)pyrazol-3-yl]amino]-N-(3-hydroxy-2,6-dimethyl-phenyl)thiazole-5-carboxamide] | – | – | – | 1 to 11 | W (10-<100 fold) | 0.05 to 1
Cc1ccc(O)c(C)c1NC(=O)c1cnc(Nc2cccc(C(=O)NC(C(C)C)C(F)(F)F)c2)s1 (stereo not drawn) [BAA-259, N-(3-hydroxy-2,6-dimethylphenyl)-2-((3-((1,1,1-trifluoro-3-methylbutan-2-yl)carbamoyl)phenyl)amino)thiazole-5-carboxamide] | – | – | – | > 11 | X (100-<1000 fold) | 0.05 to 1
Cc1ccc(O)c(C)c1NC(=O)c1cnc(Nc2ccn(CC(=O)N3CCN(S(C)(=O)=O)CC3)n2)s1 [BAA-142] | – | – | – | > 11 | X (100-<1000 fold) | < 0.05
Cc1ccc(O)c(C)c1NC(=O)c1cnc(Nc2ccn(CC(=O)NCC3CCNCC3)n2)s1 [BAA-226] | – | – | – | > 11 | X (100-<1000 fold) | < 0.05
Cc1ccc(O)c(C)c1NC(=O)c1cnc(Nc2ccn(CC(=O)N3CCN(C(=O)OC(C)(C)C)CC3)n2)s1 [BAA-140, tert-butyl 4-[2-[3-[5-[(3-hydroxy-2,6-dimethyl-phenyl)carbamoyl]thiazol-2-ylamino]pyrazol-1-yl]acetyl]piperazine-1-carboxylate] | – | – | – | > 11 | Y (1000-5000 fold) | < 0.05
Cc1ccc(O)c(C)c1NC(=O)c1cnc(Nc2cc[nH]n2)s1 [BAA-003, N-(3-hydroxy-2,6-dimethyl-phenyl)-2-(1H-pyrazol-3-ylamino)thiazole-5-carboxamide] | – | – | – | > 11 | W (10-<100 fold) | 1 to 11
O=C(Nc1c(F)ccc(O)c1Cl)c1cnc(Nc2ccn(CC(=O)N3CCCC3)n2)s1 [BAA-482, N-(2-chloro-6-fluoro-3-hydroxyphenyl)-2-((1-(2-oxo-2-(pyrrolidin-1-yl)ethyl)-1H-pyrazol-3-yl)amino) thiazole-5-carboxamide] | > 11 | Y (1000-5000 fold) | < 0.05 | – | – | –
CCn1cc(C#N)c(Nc2ncc(C(=O)Nc3c(C)ccc(O)c3C)s2)n1 [BAA-573, 2-((4-cyano-1-ethyl-1H-pyrazol-3-yl)amino)-N-(3-hydroxy-2,6-dimethylphenyl)thiazole-5-carboxamide] | > 11 | Y (1000-5000 fold) | < 0.05 | – | – | –
Cc1ccc(O)c(C)c1NC(=O)c1cnc(Nc2cc(C(=O)O)nn2C)s1 [BAA-121, 5-[[5-[(3-hydroxy-2,6-dimethyl-phenyl)carbamoyl]thiazol-2-yl]amino]-1-methyl-pyrazole-3-carboxylic acid] | – | – | – | > 11 | X (100-<1000 fold) | 0.05 to 1
Cc1ccc(O)c(C)c1NC(=O)c1cnc(Nc2ccn([C@@H]3CCN(C(=O)CC4CCCCC4)C3)n2)s1 [BAA-097] | – | – | – | > 11 | >X (100-<1000 fold) | 0.05 to 1
Cc1cn(CC(=O)N2CCN(C)CC2)nc1Nc1ncc(C(=O)Nc2c(C)ccc(O)c2C)s1 [BAA-205, N-(3-hydroxy-2,6-dimethyl-phenyl)-2-[[4-methyl-1-[2-(4-methylpiperazin-1-yl)-2-oxo-ethyl]pyrazol-3-yl]amino]thiazole-5-carboxamide] | – | – | – | > 11 | Y (1000-5000 fold) | < 0.05
Cc1ccc(O)c(C)c1NC(=O)c1cnc(Nc2cc(C)n(CCC#N)n2)s1 [BAA-518, 2-((1-(2-cyanoethyl)-5-methyl-1H-pyrazol-3-yl)amino)-N-(3-hydroxy-2,6-dimethylphenyl)thiazole-5-carboxamide] | 1 to 11 | W (10-<100 fold) | < 0.05 | – | – | –
